Assays:
[1] = in vivo
[2] = in vivo; remark: listed apart in the source
rats = assay: Forced swimming test (immobility time, antidepressant activity); type: in vivo; conditions: parenteral, eight rats
Experimental: Details of this behavioural test are described for example by Willner, Psychopharmacology 83, 1-16 (1984) and by Borsini and Meli, Psychopharmacology 94, 147-160 (1988).
Pramipexol (SND 919) was investigated on eight rats, by comparison with amineptine, a known antidepressant. Both substances were dissolved in physiological saline solution and administered by parenteral route.

Row | Compound | tolerability [1] | bioavailability [2] | half-life [2] | Immobility time (rats; dose 0.03 mg/kg) | Immobility time (rats; dose 0.10 mg/kg) | Immobility time (rats; dose 0.30 mg/kg) | Immobility time (rats; dose 20.00 mg/kg)
1 | CCCN[C@H]1CCc2nc(N)sc2C1 [SND 919, 2-amino-6-n-propyl-amino-4,5,6,7-tetrahydrobenzothiazole] | extremely well tolerated | > 80% | 750 min | 210 ± 14 s | 165 ± 6 s | 102 ± 17 s | 
2 | O=C(O)CCCCCCNC1c2ccccc2CCc2ccccc21 [Amineptine, reference compound] |  |  |  |  |  |  | 134 ± 19 s

From US6191153A, “Use of 2-amino-6-n-propyl-amino-4,5,6,7-tetrahydrobenzothiazole as a pharmaceutical composition having an antidepressant activity” (Boehringer Ingelheim KG, priority 1992, dated 2001)
